Assay results from patent US20180339016A1 (priority 2015, published 2018).
Read-outs that look alike come from different tables or passages of the source.

Key:
[1] = test system: Escherichia coli (ATCC 25922); conditions: peptide alone; peptide concentration required to inhibit growth by 20% (so in the source)
Protocol: (§1) The N-terminus of the peptides were acetylated and the C-terminus was amidated. The kinked structure can rapidly reduce the alpha-helical content, thereby greatly reducing the toxicity of the peptide against host cells. In addition, because of the potential to show specificity for the Gram-negative bacterial membrane, Pro-mutants were prepared by site-directed mutagenesis. Using the prepared peptides, their MIC for the Gram-negative bacterium E. coli and the Gram-positive bacterium S. aureus and their hemolytic activity for host cells were examined (Table 1).
(§2) To measure the synergy between the membrane-activating peptides and the repositioning drug, a 10× compound was prepared, and then serially diluted ⅔-fold with distilled water. An MH broth (900 μl) was added to and mixed with the 10× compound (100 μl), and then 200 μL of the mixture was taken and added to a 96-well plate. E. coli cultured for one day was adjusted to 0.5 MCF using MCFarland, and diluted 10-fold, and then 10 μl of the dilution was added to each well of the plate (5×10^5 CFU/mL). After addition of the bacterial cells, plate was incubated at 37° C. for 18 hours, and then the OD value at UV-Vis (600 nm) was measured. Cell viability (%)=(OD600 of sample−OD600 of negative control)/(OD600 of positive control−OD600 of negative control)×100.

[2] = test system: Staphylococcus aureus (ATCC 29213); experiment: MIC of peptide against S. aureus; assay type: cell-based; conditions: peptide alone
Protocol: as §1

E. coli ATCC 25922 [3] = test system: E. coli ATCC 25922
E. coli ATCC 25922 [4] = experiment: Antibiotic interaction assay (Wimley), 2/3 broth microdilution: MIC alone, MIC of combination, FICI; assay type: cell-based; conditions: for MIC of combination (μM): antibiotic (colistin): colistin concentration in combination with labelled peptide; for MIC of peptide: peptide alone
Protocol: Synergy was evaluated by an antibiotic interaction assay (Wimley, 2015) Using the method of Wimley (BBA, 2015, v. 1848(1), pp. 8-15), synergy between the membrane-activating peptide and an antibiotic was measured by an FICI value (FIG. 17). […] Thus, to accurately examine synergy, a ⅔ dilution method which observes MIC at denser concentration intervals is advantageous over a ½ dilution method in statistical terms. […] In the same manner, the MIC of an antibiotic or repositioning drug (second line) is measured. In the third line, the two compounds are mixed after putting half amount each, and the MIC thereof is measured.
A broth microdilution technique (⅔ dilution) was used together with an MH broth. E. coli treated with an antibiotic and the peptide was incubated in a 37° C. incubator for 18 hours.
as §2

[5] = peptide concentration in combination with colistin
[6] = labelled peptide + colistin + linezolid
[7] = three compounds: labelled peptide + colistin + linezolid

| Substance | MIC [μM] Against E. coli [1] [µM] | MIC [μM] Against S. aureus [2] [µM] | also measured |
| --- | --- | --- | --- |
| LKKLLPLLKKLLKL [LK-K6P] | 2.5 | 5.0 | – |
| LKKLLKPLKKLLKL [LK-L7P] | 2.5 | 20 | – |
| KPLKLLKKLLKLLK [KL-L2P] | 5 | 20 | – |
| LKKLLKLLKKPPKL [LK-L11PL12P] | 2.5 | >40 | – |
| KLLKLLKKPLKLAK [KL-L9PL13A] | 40 | – | increase of FICI value with colistin when peptide changed from 1/4 MIC to 1/2 MIC (E. coli ATCC 25922 [3]): 0.29; FICI Against E. coli, Colistin & 1/2 MIC peptide (E. coli ATCC 25922 [3]; Table 15, Leu-Ala scanning): 0.80; FICI Against E. coli, Colistin & 1/4 MIC peptide (E. coli ATCC 25922 [3]; Table 15, Leu-Ala scanning): 0.51 |
| LKKPLKLPKKLLKL [LK-L4PL8P] | 40 | >40 | – |
| KLLKLLKKNLKLLK [KL L9N] | 2.5 | – | – |
| LKKLLKLLKPLLKL [LK-K10P] | 5.0 | 5.0 | – |
| KLLKLLKKLLKLPK [KL-L13P] | 5 | 10 | – |
| KLLKLLKPLLKLLK [KL-K8P] | 2.5 | 5.0 | – |
| KLLKLLKKDLKLLK [KL L9D] | 20 | – | MIC of combination (μM): antibiotic (colistin) (E. coli ATCC 25922 [4]): 0.09 µM; FICI of peptide with colistin (E. coli ATCC 25922 [4]; labelled peptide + colistin): 0.46; FICIPeptide (E. coli ATCC 25922 [4]; labelled peptide + colistin): 0.28; FICIcolistin / FICIantibiotic (E. coli ATCC 25922 [4]; labelled peptide + colistin): 0.18; FICI of peptide with simvastatin (E. coli ATCC 25922 [4]; labelled peptide + simvastatin): 0.61; FICIPeptide (E. coli ATCC 25922 [4]; labelled peptide + simvastatin): 0.5; FICIsimvastatin (E. coli ATCC 25922 [4]; labelled peptide + simvastatin): 0.11; MIC of peptide (E. coli ATCC 25922 [4]): 18 µM; MIC of combination (μM): peptide (E. coli ATCC 25922 [4]; [5]): 5 µM; MIC of combination (μM): peptide (E. coli ATCC 25922 [4]; peptide concentration in combination with simvastatin): 9 µM; MIC of combination (μM): simvastatin (E. coli ATCC 25922 [4]; simvastatin concentration in combination with labelled peptide): 83.33 µM |
| KLLKLLKKLLKPLK [KL-L12P] | 2.5 | 20 | – |
| LKKPLKLLKKLLKL [LK-L4P] | 5 | 40 | – |
| KLLKPLKKLLKLLK [KL-L5P] | 5.0 | 20 | – |
| KLLKLLKKSLKLLK [KL L9S] | 1.25 | – | – |
| KLLKLLKCLLKCLK [8, 12 kink] | 1.1 | – | MIC of combination (μM): antibiotic (colistin) (E. coli ATCC 25922 [4]): 0.065 µM; FICI of peptide with colistin (E. coli ATCC 25922 [4]; labelled peptide + colistin): 0.86; FICIPeptide (E. coli ATCC 25922 [4]; labelled peptide + colistin): 0.56; FICIcolistin / FICIantibiotic (E. coli ATCC 25922 [4]; labelled peptide + colistin): 0.30; FICI of peptide with colistin and linezolid (E. coli ATCC 25922 [4]; [6]): 1.1; FICIPeptide (E. coli ATCC 25922 [4]; [6]): 0.42; FICIcolistin (E. coli ATCC 25922 [4]; [6]): 0.29; FICIlinezolid (E. coli ATCC 25922 [4]; [6]): 0.37; MIC of peptide (E. coli ATCC 25922 [4]): 1.1 µM; MIC of combination (μM): peptide (E. coli ATCC 25922 [4]; [5]): 0.59 µM; MIC of combination (μM): colistin (E. coli ATCC 25922 [4]; [7]): 0.065 µM; MIC of combination (μM): linezolid (E. coli ATCC 25922 [4]; [7]): 22 µM; MIC of combination (μM): peptide (E. coli ATCC 25922 [4]; [7]): 0.44 µM |
| LKKPPKLLKKLLKL [LK-L4PL5P] | 5 | >40 | – |
| KLLKLLPKLLKLLK [KL-K7P] | 2.5 | 5.0 | – |
| KLLKLLKAPLKLLK [KL-L9P/K8A] | – | – | FICI Against E. coli, Colistin & 1/2 MIC peptide (E. coli ATCC 25922 [3]; Table 13, Lys-Ala scanning library): 0.97 |
| KLAKLAKKPLKLAK [KLA-L9P] | > 200 | – | – |
| Ac-KLLKALKKPLKLLK-NH2 [KL-L5AL9P] | 18 | – | increase of FICI value with colistin when peptide changed from 1/4 MIC to 1/2 MIC (E. coli ATCC 25922 [3]): 0.37; FICI Against E. coli, Colistin & 1/2 MIC peptide (E. coli ATCC 25922 [3]; Table 15, Leu-Ala scanning): 0.86; FICI Against E. coli, Colistin & 1/4 MIC peptide (E. coli ATCC 25922 [3]; Table 15, Leu-Ala scanning): 0.49 |
| KLLKLLKKGLKLLK [KL L9G] | 1.25 | – | – |
| KLLKLLKKELKLLK [KL L9E] | 5 | – | – |
